Laboratory results reported in US8552000B2, “Therapeutic agent for senile dementia” (Dainippon Sumitomo Pharma Co., Ltd., priority 2003, dated 2013).

Tested on: scopolamine-induced cognitive/memory dysfunction models
Experiment: one step-through passive avoidance test, scopolamine-induced amnesia
Assay type: in vivo, Male Wistar rats
Method: Male Wistar rats (7 weeks old) were used. As a test medicament, (1R,2S,3R,4S)—N-|(1R,2R)-2-[4-(1,2-benzisothiazol-3-yl)-1-piperazinyl-methyl]-1-cyclohexylmethyl]-2,3-bicycl[2.2.1]heptanedicarboxylmide (Compound A) was suspended in 0.5% methyl cellulose (MC) solution. As an agent for inducing amnesia, scopolamine (manufactured by Wako Pure Chemical Industries, Ltd., product No. 198-07901), which is an acethylcoline receptor blocker, was dissolved in saline solution (manufactured by TERUMO CORPORATION). Compound A at a dose of 3 mg/kg or 30 mg/kg, or 0.5% MC as a control was orally administered to the animals one hour prior to the training step in the one step-through passive avoidance test, and then, scopolamine at a dose of 0.5 mg/kg or a saline solution as a control was subcutaneously administered to the animals 30 minutes prior to the training step. The volume of each solution to be administered was 5 ml/kg each.
The one step-through passive avoidance test in rats was carried out in the following manners with using an apparatus consisting of a light-dark box and an electric stimulator (manufactured by O'hara & Co., Ltd., product no. PA-2030A) as an experimental apparatus. Namely, on Day 1, after the medicament and the agent for inducing amnesia were administered, the rats were put into the light box of the experimental apparatus where the back of each rat was directed to the dark box. Then, 10 seconds later, a guillotine door set at the border between the dark box and the light box was opened. Due to the habits of the rats, once the rats entered into the dark box, the guillotine door was quickly closed. At three seconds after the entering into the dark box, an electroconvulsive shock (0.5 mA, for 3 seconds) was given to the rats. Again, the guillotine door was opened, and after the rats spontaneously returned to the light box, the animals were transferred into the home cage. The period between the time just after the guillotine door was opened and the time at which the rats entered into the dark box was measured as a step-through latency.
On Day 2 of the experiment, a test was carried out about 24 hours after the training. The procedures of the test were carried out in the same manner to the training step except that an electroconvulsive shock was not given. The step-through latency in the test was measured up to 300 seconds, and the step-through latency over 300 seconds was regarded as 300 seconds. FIG. 1 and FIG. 2 show the effects of Compound A on the scopolamine-induced cognitive/memory dysfunction models in the one step-through passive avoidance test when it was orally administered at a dosage of 3 mg/kg or 30 mg/kg. […] The number of the animals was 15 per group, and the data was expressed in mean±SEM.

Which “step-through latency during the training” value (Compound A 3 mg/kg orally one hour prior to training, scopolamine 0.5 mg/kg s.c. 30 minutes prior, vs 0.5% MC+scopolamine) does the source give for O=C1[C@@H]2[C@@H]3CC[C@@H](C3)[C@@H]2C(=O)N1C[C@@H]1CCCC[C@H]1CN1CCN(c2nsc3ccccc23)CC1 [Compound A] here?
The value was “slightly shortened”.

And the “step-through latency during the test” value (Compound A 30 mg/kg orally plus scopolamine 0.5 mg/kg s.c., test about 24 hours after training, vs 0.5% MC+scopolamine)?
The value was “significantly extended”.

What about the “improving effect of scopolamine-induced cognitive/memory dysfunctions” value (overall finding of the passive avoidance test in rats, oral administration) of the same compound?
The value was “exhibited an improving effect”.

CN1[C@@H]2C[C@@H](OC(=O)[C@H](CO)c3ccccc3)C[C@H]1[C@@H]1O[C@@H]12 [scopolamine, reference compound] was tested. Which “step-through latency during the training” value (scopolamine 0.5 mg/kg s.c. alone (with 0.5% MC), vs saline solution) did it give?
The value was “did not affect”.

What about the “step-through latency during the test” value (scopolamine 0.5 mg/kg s.c. alone (with 0.5% MC), vs saline solution, about 24 hours after training) of the same compound?
Its value is “significantly shorter”.
